The target in test [1] is T1, human recombinant kinase full-length AKT1 E17K (Homo sapiens, UniProt P31749, E17K).
T1 construct: Purified human recombinant kinase full-length AKT1 E17K was expressed in insect cells; made in house; host or cells: insect cells
As to the kind of experiment: AKT1 E17K kinase assay (TR-FRET, Lance). Format: biochemical. To be noted: 0.6 nM AKT1 E17K, 50 nM Ulight-CREBtide, either 50 μM ATP or 2 mM ATP, 60 min at RT. The essentials: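 Full-length AKT1 E17K from insect cells, PDPK1-activated, at 0.6 nM with 50 nM Ulight-CREBtide and 50 μM or 2 mM ATP, pH 7.5, 1% DMSO. Enzyme and compound preincubated 15 min, reaction run 60 min at RT; Eu-anti-phospho-CREB (Ser133) TR-FRET 665/620 ratio, 10-point curve, IC50 by 4-parameter fit.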

Test [2] has as its target T2, human recombinant kinase full-length wildtype AKT1 (Homo sapiens, UniProt P31749).
T2 construct: Purified human recombinant kinase full-length wildtype AKT1 was expressed in insect cells; made in house; host or cells: insect cells
The test can be described thus: AKT1 kinase assay (wildtype, TR-FRET, Lance). Type of test: biochemical. The settings on record: 0.6 nM wildtype AKT1, 50 nM Ulight-CREBtide, either 50 μM ATP or 2 mM ATP, 60 min at RT. In a few lines:
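Insect-cell-expressed full-length human AKT1, PDPK1-activated (0.6 nM), preincubated with compound 15 min at RT, then reacted 60 min at RT with 50 nM ULight-CREBtide and 50 μM or 2 mM ATP (pH 7.5, 1% DMSO). Phospho-CREBtide read by Eu-anti-phospho-Ser133 TR-FRET (665/620 ratio); IC50 from 10-point 4-parameter fit.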
Background: In TR-FRET formats the signal depends on donor and acceptor labels being close together.

Structures are written as SMILES. Bounds are passed on as bounds.

T2 sequence (P31749 whole entry): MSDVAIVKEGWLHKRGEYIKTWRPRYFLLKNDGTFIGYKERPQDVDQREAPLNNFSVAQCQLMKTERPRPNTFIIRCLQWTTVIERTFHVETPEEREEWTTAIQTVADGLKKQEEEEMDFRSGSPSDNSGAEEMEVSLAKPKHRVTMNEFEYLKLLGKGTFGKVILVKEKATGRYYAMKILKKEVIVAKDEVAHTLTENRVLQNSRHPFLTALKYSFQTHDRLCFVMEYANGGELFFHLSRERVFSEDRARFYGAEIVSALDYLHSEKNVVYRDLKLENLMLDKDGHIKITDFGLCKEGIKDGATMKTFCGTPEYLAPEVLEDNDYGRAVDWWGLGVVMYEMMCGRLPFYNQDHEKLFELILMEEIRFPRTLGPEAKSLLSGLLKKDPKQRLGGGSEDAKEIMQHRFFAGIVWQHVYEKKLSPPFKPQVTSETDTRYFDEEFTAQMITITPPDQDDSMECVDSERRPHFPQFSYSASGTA
T1 sequence (P31749 whole entry E17K): as the sequence (P31749 whole entry) above, with E17K counted along it

The term IC50 denotes the midpoint of a concentration-inhibition curve. `Nc1ncccc1-c1nc2ccc(C3CCOCC3)cc2n1-c1ccc(NC(=O)[C@H]2CC[C@H](C(=O)O)CC2)cc1` [Compound I-34, (1r,4r)-4-((4-(2-(2-aminopyridin-3-yl)-6-(tetrahydro-2H-pyran-4-yl)-1H-benzo[d]imidazol-1-yl)phenyl)carbamoyl)cyclohexane-1-carboxylic acid]: the IC50 in test [1] was not below 2 µM; in test [2], less than 20 µM.
Regarding `CC(C)(C)c1ccc2nc(-c3cccnc3N)n(-c3ccc(NC(=O)[C@H]4CC[C@H](C(=O)O)CC4)cc3)c2c1` [Compound I-35, (1r,4r)-4-((4-(2-(2-aminopyridin-3-yl)-6-(tert-butyl)-1H-benzo[d]imidazol-1-yl)phenyl)carbamoyl)cyclohexane-1-carboxylic acid], the IC50 was not below 2 µM in test [1] and less than 20 µM in test [2].
Take `Nc1ncccc1-c1nc2ccc(-c3ccccc3)nc2n1-c1ccc(C2CN(C[C@H]3CC[C@@H](C(=O)O)CC3)C2)cc1` [Compound I-36, (1s,4s)-4-((3-(4-(2-(2-aminopyridin-3-yl)-5-phenyl-3H-imidazo[4,5-b]pyridin-3-yl)phenyl)azetidin-1-yl)methyl)cyclohexane-1-carboxylic acid]: the IC50 in test [1] was 0.5 to 2 µM; in test [2] it was less than 20 µM.
`Nc1ncccc1-c1nc2ccc(-c3ccccc3)nc2n1-c1ccc(C2CN(C(=O)C3CC(=O)CC(=O)C3)C2)cc1` [Compound I-37, 5-(3-(4-(2-(2-aminopyridin-3-yl)-5-phenyl-3H-imidazo[4,5-b]pyridin-3-yl)phenyl)azetidine-1-carbonyl)cyclohexane-1,3-dione]: the IC50 was less than 0.5 µM in test [1] and less than 20 µM in test [2].
Regarding `Nc1ncccc1-c1nc2ccc(-c3ccccc3)nc2n1-c1ccc(CNC(=O)C2CC(=O)CC(=O)C2)cc1` [Compound I-38, N-(4-(2-(2-aminopyridin-3-yl)-5-phenyl-3H-imidazo[4,5-b]pyridin-3-yl)benzyl)-3,5-dioxocyclohexane-1-carboxamide], the IC50 in test [1] was less than 0.5 µM; in test [2], less than 20 µM.
On the same counts, the results for `CC(C)(C(=O)O)C1CCN(c2ccc(-n3c(-c4cccnc4N)nc4ccc(-c5ccccc5)nc43)cn2)C1` (centres unmarked) [Compound I-39, 2-(1-(5-(2-(2-aminopyridin-3-yl)-5-phenyl-3H-imidazo[4,5-b]pyridin-3-yl)pyridin-2-yl)pyrrolidin-3-yl)-2-methylpropanoic acid] are not below 2 µM and less than 20 µM.
In the same order, the values of `Nc1ncccc1-c1nc2ccc(-c3ccc(F)cc3)nc2n1-c1ccc(NC(=O)[C@H]2CC[C@H](C(=O)O)CC2)nc1` [Compound I-40, (1r,4r)-4-((5-(2-(2-aminopyridin-3-yl)-5-(4-fluorophenyl)-3H-imidazo[4,5-b]pyridin-3-yl)pyridin-2-yl)carbamoyl)cyclohexane-1-carboxylic acid] are less than 0.5 µM and less than 20 µM.
Take `Nc1ncccc1-c1nc2ccc(-n3cccn3)nc2n1-c1ccc(NC(=O)[C@H]2CC[C@H](C(=O)O)CC2)nc1` [Compound I-41, (1r,4r)-4-((5-(2-(2-aminopyridin-3-yl)-5-(1H-pyrazol-1-yl)-3H-imidazo[4,5-b]pyridin-3-yl)pyridin-2-yl)carbamoyl)cyclohexane-1-carboxylic acid]: the figures for the IC50 in test [1] and in test [2] were less than 0.5 µM and less than 20 µM, respectively.
Take `Nc1ncccc1-c1nc2ccc(-c3ccccc3)nc2n1-c1ccc(NC[C@H]2CC[C@H](C(=O)O)CC2)nc1` [Compound I-43, (1r,4r)-4-(((5-(2-(2-aminopyridin-3-yl)-5-phenyl-3H-imidazo[4,5-b]pyridin-3-yl)pyridin-2-yl)amino)methyl)cyclohexane-1-carboxylic acid]: the IC50 in test [1] was less than 0.5 µM; in test [2], less than 20 µM.
In the case of `Nc1ncccc1-c1nc2ccc(-c3ccccc3)nc2n1-c1ccc(NC(=O)C2CC3(CC(C(=O)O)C3)C2)cc1` (centres unmarked) [Compound I-46, 6-[[4-[2-(2-amino-3-pyridyl)-5-phenyl-imidazo[4,5-b]pyridin-3-yl]phenyl]carbamoyl]spiro[3.3]heptane-2-carboxylic acid], the IC50 is less than 0.5 µM in test [1] and less than 20 µM in test [2].
Regarding `Nc1ncccc1-c1nc2ccc(-c3ccccc3)nc2n1-c1ccc(NC(=O)C2CC3(CC(C(=O)O)C3)C2)c(F)c1` (centres unmarked) [Compound I-47, 6-((4-(2-(2-aminopyridin-3-yl)-5-phenyl-3H-imidazo[4,5-b]pyridin-3-yl)-2-fluorophenyl)carbamoyl)spiro[3.3]heptane-2-carboxylic acid], the IC50 in test [1] is less than 0.5 µM; in test [2], less than 20 µM.
For the compound `Nc1ncccc1-c1nc2ccc(-c3ccccc3)nc2n1-c1ccc(NC(=O)C2CC3C(C2)C3C(=O)O)nc1` (centres unmarked) [Compound I-48, 3-((5-(2-(2-aminopyridin-3-yl)-5-phenyl-3H-imidazo[4,5-b]pyridin-3-yl)pyridin-2-yl)carbamoyl)bicyclo[3.1.0]hexane-6-carboxylic acid], the figures for the IC50 in test [1] and in test [2] were less than 0.5 µM and less than 20 µM, respectively.
Consider `Nc1ncccc1-c1nc2ccc(-c3ccccc3)nc2n1-c1ccc(NC(=O)N2CCC(C(=O)O)C2)cc1` (centres unmarked) [Compound I-52, 1-[[4-[2-(2-amino-3-pyridyl)-5-phenyl-imidazo[4,5-b]pyridin-3-yl]phenyl]carbamoyl]pyrrolidine-3-carboxylic acid], for which the figures for the IC50 in test [1] and in test [2] were less than 0.5 µM and less than 20 µM, respectively.
Take `Nc1ncccc1-c1nc2ccc(-c3ccccc3)nc2n1-c1ccc(NC(=O)N2CCC(C(=O)O)CC2)cc1` [Compound I-53, 1-[[4-[2-(2-amino-3-pyridyl)-5-phenyl-imidazo[4,5-b]pyridin-3-yl]phenyl]carbamoyl]piperidine-4-carboxylic acid]: the IC50 was less than 0.5 µM in test [1] and less than 20 µM in test [2].
On to `Nc1ncccc1-c1nc2ccc(-c3ccccc3)nc2n1-c1ccc(C2CN(C[C@H]3CC[C@H](C(=O)O)CC3)C2)cc1` [Compound I-57, (1r,4r)-4-((3-(4-(2-(2-aminopyridin-3-yl)-5-phenyl-3H-imidazo[4,5-b]pyridin-3-yl)phenyl)azetidin-1-yl)methyl)cyclohexane-1-carboxylic acid], for which the IC50 in test [1] was less than 0.5 µM; in test [2], less than 20 µM.
As for `Nc1ncccc1-c1nc2ccc(-c3ccccc3)nc2n1-c1ccc(C2CN(C[C@@H]3CC[C@H](C(=O)O)C3)C2)cc1` [Compound I-58, (1S,3R)-3-((3-(4-(2-(2-aminopyridin-3-yl)-5-phenyl-3H-imidazo[4,5-b]pyridin-3-yl)phenyl)azetidin-1-yl)methyl)cyclopentane-1-carboxylic acid], the IC50 is less than 0.5 µM in test [1] and less than 20 µM in test [2].
On to `C[C@H]([C@H]1CC[C@H](C(=O)O)CC1)N1CC(c2ccc(-n3c(-c4cccnc4N)nc4ccc(-c5ccccc5)nc43)cc2)C1` [Compound I-59, (1R,4r)-4-((R)-1-(3-(4-(2-(2-aminopyridin-3-yl)-5-phenyl-3H-imidazo[4,5-b]pyridin-3-yl)phenyl)azetidin-1-yl)ethyl)cyclohexane-1-carboxylic acid], for which the IC50 in test [1] was less than 0.5 µM; in test [2], less than 20 µM.
In the same order, the values of `C[C@@H]([C@H]1CC[C@H](C(=O)O)CC1)N1CC(c2ccc(-n3c(-c4cccnc4N)nc4ccc(-c5ccccc5)nc43)cc2)C1` [Compound I-60, (1S,4r)-4-((S)-1-(3-(4-(2-(2-aminopyridin-3-yl)-5-phenyl-3H-imidazo[4,5-b]pyridin-3-yl)phenyl)azetidin-1-yl)ethyl)cyclohexane-1-carboxylic acid] are 0.5 to 2 µM and less than 20 µM.
For the compound `Nc1ncccc1-c1nc2ccc(-c3ccccc3)nc2n1-c1ccc(C2CN(C[C@@H]3CC[C@@H](C(=O)O)C3)C2)cc1` [Compound I-61, (1R,3R)-3-((3-(4-(2-(2-aminopyridin-3-yl)-5-phenyl-3H-imidazo[4,5-b]pyridin-3-yl)phenyl)azetidin-1-yl)methyl)cyclopentane-1-carboxylic acid], the IC50 was less than 0.5 µM in test [1] and less than 20 µM in test [2].
Turning to `Nc1ncccc1-c1nc2ccc(-c3ccccc3)nc2n1-c1ccc(C2CN(C[C@H]3CC[C@H](C(=O)O)CC3)C2)c(F)c1` [Compound I-62, (1r,4r)-4-((3-(4-(2-(2-aminopyridin-3-yl)-5-phenyl-3H-imidazo[4,5-b]pyridin-3-yl)-2-fluorophenyl)azetidin-1-yl)methyl)cyclohexane-1-carboxylic acid], the half-maximal inhibitory concentration (IC50) is 0.5 to 2 µM in test [1] and less than 20 µM in test [2].
In the same order, the values of `Nc1ncccc1-c1nc2ccc(-c3ccccc3)nc2n1-c1ccc(C2CN(C[C@H]3CC[C@@H](C(=O)O)CC3)C2)c(F)c1` [Compound I-63, (1s,4s)-4-((3-(4-(2-(2-aminopyridin-3-yl)-5-phenyl-3H-imidazo[4,5-b]pyridin-3-yl)-2-fluorophenyl)azetidin-1-yl)methyl)cyclohexane-1-carboxylic acid] are 0.5 to 2 µM and less than 20 µM.
Regarding `Nc1ncccc1-c1nc2ccc(-c3ccccc3)nc2n1-c1ccc(C2CN(CC3CCC(C(=O)O)CC3)C2)nc1` (centres unmarked) [Compound I-64, 4-((3-(5-(2-(2-aminopyridin-3-yl)-5-phenyl-3H-imidazo[4,5-b]pyridin-3-yl)pyridin-2-yl)azetidin-1-yl)methyl)cyclohexane-1-carboxylic acid], the IC50 in test [1] was not below 2 µM; in test [2] it was less than 20 µM.

The values above are taken from patent publication US20260200920A1, “SUBSTITUTED AMINOPYRIDINE COMPOUNDS FOR USE AS AKT1 INHIBITORS” (Atavistik Bio, Inc., priority 2023, published 2026).
